In patent publication US9221810B2, “Substituted bicyclic aromatic compounds as S-nitrosoglutathione reductase inhibitors” (Nivalis Therapeutics, Inc., priority 2010, dated 2015):

Test system: cigarette smoke-induced COPD (acute 4 day)
Assay: Acute (4 day) cigarette smoke exposure COPD model
Assay type: in vivo, female C57Bl/6 mice
Method: The efficacy of GSNOR inhibitors was assessed in a mouse model of chronic obstructive pulmonary disease (COPD) induced by short duration (4 days or 11 days) of exposure to cigarette smoke. Infiltration of inflammatory cells into the bronchoalveolar lavage fluid (BALF) and BALF levels of chemokines involved in inflammation and tissue turnover/repair were measured to assess the influences of GSNOR inhibitors on some of the early events associated with the initiation and progression of COPD.
Efficacy of GSNOR inhibitors against COPD was explored using acute (4 day) and subchronic (11 day) models of cigarette smoke-induced COPD in mice. […] In animal models, changes in lung pathology are only evident after extended (several months) duration of exposure to cigarette smoke, thus making chronic models prohibitive as effective screening tools. More recently, models exploring inflammatory responses after short duration (2 weeks or less) of smoke exposure in mice have been utilized as tools for screening efficacy and mechanisms of action of novel therapeutics against COPD. The key roles of inflammation in the initiation and progression of COPD, make these short duration models relevant for initial tests of efficacy of novel therapeutics.
Acute (4 Day) Smoke Exposure Model: Female C57Bl/6 mice (N=8 per group) were exposed to cigarette smoke using a whole body exposure chamber. Mice were exposed daily for 4 consecutive days to 4 cycles of smoke from 6 sequential cigarettes (Kentucky 3R4F without filter) with a 30 minute smoke free interval between cycles. GSNOR inhibitors were administered daily via oral dosing at 10 mg/kg/day for 7 days starting 2 days prior to smoke exposure and continuing 1 day post-exposure. The effects of GSNOR inhibitors were assessed by quantitating the numbers of total cells, leukocytes, and leukocytes differentials in the BALF via light microscopy and the levels of BALF chemokines via ELISA at approximately 24 h after the last smoke exposure. The effect of GSNOR inhibitors were compared to vehicle treated controls. The PDE4 inhibitor, roflumilast, was used as the positive control for the study. A group of naïve mice (N=8) was exposed to air and used as a negative control for the study.

[1] = oral 10 mg/kg/day for 7 days, vs vehicle treated controls, p<0.05

Question: What does the source list for O=C(O)c1ccc(-c2ccc3cc(O)ccc3n2)cc1 [Example 3, 4-(6-hydroxyquinolin-2-yl)benzoic acid]?
Answer: BALF chemokines (acute 4 day smoke model): restored BALF chemokines towards levels observed in naïve mice; effects compared to roflumilast (positive control) (acute 4 day smoke model): comparable to or greater than those observed for roflumilast; decrease of eosinophils in BALF [1]: 95%; decrease of leukocytes in BALF [1]: 80%; decrease of macrophages in BALF [1]: 75%; decrease of neutrophils in BALF [1]: 84%; decrease of total cells in BALF [1]: 66%
